Source: PubChem BioAssay AID192 (DTP/NCI, 2004)
“And” between values parts separate entries of the source, which are not always exact repeats. Equal values may be shown once. Toxic doses and inconclusive results are not listed.

Tested on: BDF1 mice, B16 melanoma ip, median survival T/C
Test: NCI In Vivo Anticancer Drug Screen. Data for tumor model B16 Melanoma (intraperitoneal) in B6D2F1 (BDF1) mice
Details: endpoint: median survival time, higher = longer survival
How it was run: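 Transplantable tumor model; survival or tumor size measured; reported as T/C, treated over vehicle control.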

[1] = dose: 10.0 mg/kg/injection, schedule: Q01DX009 (ip), vehicle: saline
[2] = dose: 20.0 mg/kg/injection, schedule: Q01DX009 (ip), vehicle: saline
[3] = dose: 100.0 mg/kg/injection, schedule: Q01DX009 (ip), vehicle: Klucel (hydroxypropylcellulose) (HPC)
[4] = dose: 200.0 mg/kg/injection, schedule: Q01DX009 (ip), vehicle: Klucel (hydroxypropylcellulose) (HPC)
[5] = dose: 400.0 mg/kg/injection, schedule: Q01DX009 (ip), vehicle: Klucel (hydroxypropylcellulose) (HPC)
[6] = dose: 12.5 mg/kg/injection, schedule: Q01DX009 (ip), vehicle: saline
[7] = dose: 25.0 mg/kg/injection, schedule: Q01DX009 (ip), vehicle: saline
[8] = dose: 6.25 mg/kg/injection, schedule: Q01DX009 (ip), vehicle: saline
[9] = dose: 50.0 mg/kg/injection, schedule: Q01DX009 (ip), vehicle: saline
[10] = dose: 100.0 mg/kg/injection, schedule: Q01DX009 (ip), vehicle: saline

NCCC(O)C(=O)NC1CC(N)C(OC2OC(CO)C(O)C(O)C2N)C(OC2OC(CO)C(O)C2O)C1O (centres undefined)
T/C [1]: 122 % of control
T/C [2]: 124 % of control

CCOC(=O)C(C)Oc1ccccc1[N+](=O)[O-] (centres undefined)
T/C [3]: 103 % of control
T/C [4]: 96 % of control
T/C [5]: 103 % of control

Cc1nc(C(N)=O)c(=O)[nH]c1C
T/C (dose: 12.5 mg/kg/injection, schedule: Q04DX003 (ip), vehicle: saline): 97 % of control
T/C (dose: 25.0 mg/kg/injection, schedule: Q04DX003 (ip), vehicle: saline): 102 % of control
T/C (dose: 50.0 mg/kg/injection, schedule: Q04DX003 (ip), vehicle: saline with Tween-80): 97 % of control
T/C (dose: 50.0 mg/kg/injection, schedule: Q04DX003 (ip), vehicle: saline): 100 % of control
T/C (dose: 100.0 mg/kg/injection, schedule: Q04DX003 (ip), vehicle: saline with Tween-80): 102 % of control
T/C (dose: 200.0 mg/kg/injection, schedule: Q04DX003 (ip), vehicle: saline with Tween-80): 100 % of control
T/C (dose: 400.0 mg/kg/injection, schedule: Q04DX003 (ip), vehicle: saline with Tween-80): 104 % of control

CC(C)N1C(=O)C=C(c2ccc([N+](=O)[O-])cc2)C1=O
T/C (dose: 12.5 mg/kg/injection, schedule: Q01DX009 (ip), vehicle: saline with Tween-80): 95 % of control
T/C (dose: 50.0 mg/kg/injection, schedule: Q01DX009 (ip), vehicle: saline with Tween-80): 99 % of control

CCC[CH2][Sn]1([CH2]CCC)[O]OC(c2ccc(C)cc2)[O]1 (centres undefined)
T/C (dose: 0.38 mg/kg/injection, schedule: Q01DX009 (ip), vehicle: saline with Tween-80): 96 % of control
T/C (dose: 0.75 mg/kg/injection, schedule: Q01DX009 (ip), vehicle: saline with Tween-80): 96 % of control
T/C (dose: 1.5 mg/kg/injection, schedule: Q01DX009 (ip), vehicle: saline with Tween-80): 101 % of control
T/C (dose: 3.13 mg/kg/injection, schedule: Q01DX009 (ip), vehicle: saline with Tween-80): 115 % of control

C/C=C(/C)C(=O)O[C@H]1CCN2CC=C(COC(=O)[C@@](O)([C@H](C)OC)C(C)(C)O)[C@H]12
T/C [6]: 114 % of control
T/C [7]: 104 % of control

NC(=O)c1cc(N2CC2)c([N+](=O)[O-])cc1[N+](=O)[O-]
T/C (dose: 5.0 mg/kg/injection, schedule: Q01DX009 (ip), vehicle: saline): 104 % of control
T/C [1]: 109 % of control
T/C [2]: 95 % of control

C[C@@]12C(=O)OC(=O)[C@]1(C)[C@H]1CC[C@@H]2O1
T/C (dose: 0.06 mg/kg/injection, schedule: Q01DX009 (ip), vehicle: Klucel (hydroxypropylcellulose) (HPC)): 89 % of control
T/C (dose: 0.12 mg/kg/injection, schedule: Q01DX009 (ip), vehicle: Klucel (hydroxypropylcellulose) (HPC)): 93 % of control
T/C (dose: 0.13 mg/kg/injection, schedule: Q01DX009 (ip), vehicle: acetone): 103 % of control
T/C (dose: 0.25 mg/kg/injection, schedule: Q01DX009 (ip), vehicle: Klucel (hydroxypropylcellulose) (HPC)): 90 % of control
T/C (dose: 0.25 mg/kg/injection, schedule: Q01DX009 (ip), vehicle: acetone): 101 % of control
T/C (dose: 0.5 mg/kg/injection, schedule: Q01DX009 (ip), vehicle: Klucel (hydroxypropylcellulose) (HPC)): 102 % of control
T/C (dose: 0.5 mg/kg/injection, schedule: Q01DX009 (ip), vehicle: acetone): 110 % of control
T/C (dose: 1.0 mg/kg/injection, schedule: Q01DX009 (ip), vehicle: Klucel (hydroxypropylcellulose) (HPC)): 96 % of control

CCC1(O)CC2CN(CCc3c([nH]c4ccccc34)C(C(=O)OC)(c3cc4c(cc3OC)N(C)C3C(O)(C(=O)NCCO)C(O)C5(CC)C=CCN6CCC43C65)C2)C1 (centres undefined)
T/C (dose: 0.2 mg/kg/injection, schedule: Q01DX009 (ip), vehicle: saline): 164 % of control
T/C (dose: 0.22 mg/kg/injection, schedule: Q01DX009 (ip), vehicle: water): 121 % of control
T/C (dose: 0.36 mg/kg/injection, schedule: Q01DX009 (ip), vehicle: water): 162 % of control
T/C (dose: 0.4 mg/kg/injection, schedule: Q01DX009 (ip), vehicle: saline): 191 % of control
T/C (dose: 0.6 mg/kg/injection, schedule: Q01DX009 (ip), vehicle: water): 161 % of control
T/C (dose: 0.8 mg/kg/injection, schedule: Q01DX009 (ip), vehicle: saline): 218 % of control
T/C (dose: 1.0 mg/kg/injection, schedule: Q04DX003 (ip), vehicle: saline): 155 % of control
T/C (dose: 1.04 mg/kg/injection, schedule: Q01DX001 (ip), vehicle: water): 121 % of control
T/C (dose: 1.44 mg/kg/injection, schedule: Q04DX003 (ip), vehicle: water): 155 % of control and 179 % of control
T/C (dose: 1.67 mg/kg/injection, schedule: Q04DX003 (ip), vehicle: saline): 161 % of control
T/C (dose: 2.4 mg/kg/injection, schedule: Q04DX003 (ip), vehicle: water): 155 % of control and 206 % of control
T/C (dose: 2.9 mg/kg/injection, schedule: Q01DX001 (ip), vehicle: water): 122 % of control
T/C (dose: 4.0 mg/kg/injection, schedule: Q04DX003 (ip), vehicle: water): 87 % of control
T/C (dose: 648.0 micrograms/kg/injection, schedule: Q04DX003 (ip), vehicle: saline): 163 % of control
T/C (dose: 1080.0 micrograms/kg/injection, schedule: Q04DX003 (ip), vehicle: saline): 167 % of control
T/C (dose: 1800.0 micrograms/kg/injection, schedule: Q04DX003 (ip), vehicle: saline): 156 % of control and 182 % of control
T/C (dose: 3000.0 micrograms/kg/injection, schedule: Q04DX003 (ip), vehicle: saline): 166 % of control and 179 % of control

[O-]c1c[n+](C23CCC(c4ccccc42)c2ccccc23)no1
T/C (dose: 75.0 mg/kg/injection, schedule: Q01DX009 (ip), vehicle: Klucel (hydroxypropylcellulose) (HPC)): 102 % of control
T/C (dose: 150.0 mg/kg/injection, schedule: Q01DX009 (ip), vehicle: Klucel (hydroxypropylcellulose) (HPC)): 100 % of control
T/C (dose: 300.0 mg/kg/injection, schedule: Q01DX009 (ip), vehicle: Klucel (hydroxypropylcellulose) (HPC)): 108 % of control

COc1ccc(C(C#N)N2CCOCC2)cc1 (centres undefined)
T/C (dose: 50.0 mg/kg/injection, schedule: Q01DX009 (ip), vehicle: Klucel (hydroxypropylcellulose) (HPC)): 89 % of control
T/C (dose: 50.0 mg/kg/injection, schedule: Q04DX003 (ip), vehicle: Klucel (hydroxypropylcellulose) (HPC)): 95 % of control
T/C (dose: 100.0 mg/kg/injection, schedule: Q04DX003 (ip), vehicle: Klucel (hydroxypropylcellulose) (HPC)): 97 % of control

C=C1C(=O)O[C@@H]2C[C@@H](C)[C@@H]3[C@@H](OC4OC(COC(C)=O)C(O)C(O)C4O)CC(=O)[C@@]3(C)C[C@H]12 (some centres undefined)
T/C (dose: 6.4 mg/kg/injection, schedule: Q01DX009 (ip), vehicle: saline): 95 % of control
T/C (dose: 9.6 mg/kg/injection, schedule: Q01DX009 (ip), vehicle: saline): 100 % of control
T/C (dose: 14.0 mg/kg/injection, schedule: Q01DX009 (ip), vehicle: saline): 100 % of control
T/C (dose: 22.0 mg/kg/injection, schedule: Q01DX009 (ip), vehicle: saline): 100 % of control

CC1C=CCC(C)(C)C1 (centres undefined)
T/C (dose: 50.0 mg/kg/injection, schedule: Q01DX009 (ip), vehicle: other): 96 % of control
T/C [3]: 111 % of control
T/C (dose: 100.0 mg/kg/injection, schedule: Q01DX009 (ip), vehicle: other): 92 % of control
T/C (dose: 100.0 mg/kg/injection, schedule: Q04DX003 (ip), vehicle: saline): 88 % of control
T/C [4]: 104 % of control
T/C (dose: 200.0 mg/kg/injection, schedule: Q04DX003 (ip), vehicle: saline): 97 % of control
T/C [5]: 105 % of control
T/C (dose: 400.0 mg/kg/injection, schedule: Q04DX003 (ip), vehicle: saline): 90 % of control

C#CC(O)(/C=C\Cl)CC (centres undefined)
T/C [8]: 110 % of control
T/C [6]: 102 % of control
T/C [7]: 100 % of control
T/C [9]: 110 % of control
T/C [10]: 115 % of control

CCC(C)C(C(=O)OC1CCN(C)CC1)c1ccccc1 (centres undefined)
T/C [7]: 101 % of control
T/C [9]: 90 % of control

CN=C1CN(O)C(c2ccccc2)=c2cc(Cl)ccc2=N1
T/C (dose: 3.12 mg/kg/injection, schedule: Q01DX009 (ip), vehicle: saline): 115 % of control
T/C [8]: 101 % of control and 114 % of control
T/C [6]: 92 % of control and 94 % of control and 101 % of control
T/C [7]: 100 % of control and 101 % of control
T/C [9]: 114 % of control and 117 % of control
T/C [10]: 100 % of control and 102 % of control
